Values quoted from earlier work in US9895453B1, “Shiny ultrasound gel” (priority 2016, dated 2018).

How the values were obtained:
Ps. cepacia = conditions: initial inoculum 2.7 × 10^6 per gram product, 0.7% Suttocide A

## O=C([O-])CNCO.[Na+] [Suttocide® A, Sodium Hydroxymethylglycinate]
Ps. aeruginosa; Ps. aeruginosa, 48 hours, initial inoculum 9.5 × 10^6 per gram product, 0.7% Suttocide A
  organism growth (count) at 48 hours: <10
Ps. aeruginosa; Ps. aeruginosa, 7 days, initial inoculum 9.5 × 10^6 per gram product, 0.7% Suttocide A
  organism growth (count) at 7 days: <10
Ps. aeruginosa; Ps. aeruginosa, 28 days, initial inoculum 9.5 × 10^6 per gram product, 0.7% Suttocide A
  organism growth (count) at 28 days: <10
Ps. aeruginosa; Pseudomonas aeruginosa, TABLE 1
  kills at a concentration of: 0.7%
A. niger; A. niger, 48 hours, initial inoculum 8.0 × 10^6 per gram product, 0.7% Suttocide A
  organism growth (count) at 48 hours: <10
A. niger; A. niger, 7 days, initial inoculum 8.0 × 10^6 per gram product, 0.7% Suttocide A
  organism growth (count) at 7 days: <10
A. niger; A. niger, 28 days, initial inoculum 8.0 × 10^6 per gram product, 0.7% Suttocide A
  organism growth (count) at 28 days: <10
A. niger; Aspergillus niger (Aspergillus brasiliensis), TABLE 1
  kills at a concentration of: 0.7%
E. Coli; E. Coli, 48 hours, initial inoculum 6.0 × 10^6 per gram product, 0.7% Suttocide A
  organism growth (count) at 48 hours: <10
E. Coli; E. Coli, 7 days, initial inoculum 6.0 × 10^6 per gram product, 0.7% Suttocide A
  organism growth (count) at 7 days: <10
E. Coli; E. Coli, 28 days, initial inoculum 6.0 × 10^6 per gram product, 0.7% Suttocide A
  organism growth (count) at 28 days: <10
E. Coli; Escheria coli, TABLE 1
  kills at a concentration of: 0.7%
Staph aureus; Staph aureus, 48 hours, initial inoculum 7.3 × 10^6 per gram product, 0.7% Suttocide A
  organism growth (count) at 48 hours: <10
Staph aureus; Staph aureus, 7 days, initial inoculum 7.3 × 10^6 per gram product, 0.7% Suttocide A
  organism growth (count) at 7 days: <10
Staph aureus; Staph aureus, 28 days, initial inoculum 7.3 × 10^6 per gram product, 0.7% Suttocide A
  organism growth (count) at 28 days: <10
Staph aureus; Staphylococcus aureus, TABLE 1
  kills at a concentration of: 0.7%
Ps. cepacia; 48 hours
  organism growth (count) at 48 hours: <10
Ps. cepacia; 7 days
  organism growth (count) at 7 days: <10
Ps. cepacia; 28 days
  organism growth (count) at 28 days: <10
C. ablicans; C. ablicans, 48 hours, initial inoculum 4.3 × 10^6 per gram product, 0.7% Suttocide A
  organism growth (count) at 48 hours: <10
C. ablicans; C. ablicans, 7 days, initial inoculum 4.3 × 10^6 per gram product, 0.7% Suttocide A
  organism growth (count) at 7 days: <10
C. ablicans; C. ablicans, 28 days, initial inoculum 4.3 × 10^6 per gram product, 0.7% Suttocide A
  organism growth (count) at 28 days: <10
C. ablicans; candida albicans, TABLE 1
  kills at a concentration of: 0.7%
